Measurements as given in ChEMBL document CHEMBL1201862, “PubChem BioAssay data set” (2004).
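Growth conditions: 96-well plates. Treatment: test compound, 48 hours, 5 concentrations. Analysis: linear interpolation between bracketing concentrations; unreached endpoints set to highest concentration. The concentration for 50% growth inhibition is given as GI50.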 Calls of active or inactive are those of the source. Rule as the data show it: active = GI50 up to about 1.1 µM and inactive = higher.

Assays:
Assay in all cases: growth of human tumour cells (NCI), 48 h
[1] = system: 786-0
[2] = system: A498
[3] = system: A549
[4] = system: ACHN
[5] = system: BT-549
[6] = system: CAKI-1
[7] = system: CCRF-CEM
[8] = system: COLO 205
[9] = system: DU-145
[10] = system: EKVX
[11] = system: HCC 2998
[12] = system: HCT-116
[13] = system: HCT-15
[14] = system: HL-60
[15] = system: HOP-62
[16] = system: HOP-92
[17] = system: HT-29
[18] = system: Hs-578T
[19] = system: IGROV-1
[20] = system: K562
[21] = system: KM12
[22] = system: LOX IMVI
[23] = system: M14
[24] = system: MCF7
[25] = system: MDA-MB-231
[26] = system: MDA-MB-435
[27] = system: MDA-N
[28] = system: MOLT-4
[29] = system: NCI-H460
[30] = system: NCI/ADR-RES
[31] = system: OVCAR-3
[32] = system: OVCAR-4
[33] = system: OVCAR-5
[34] = system: OVCAR-8
[35] = system: PC-3
[36] = system: RPMI-8226
[37] = system: RXF 393
[38] = system: SF-268
[39] = system: SF-295
[40] = system: SF-539
[41] = system: SK-MEL-28
[42] = system: SK-MEL-2
[43] = system: SK-MEL-5
[44] = system: SK-OV-3
[45] = system: SN12C
[46] = system: SNB-19
[47] = system: SNB-75
[48] = system: SR
[49] = system: SW-620
[50] = system: T47D
[51] = system: TK-10
[52] = system: U-251
[53] = system: UACC-257
[54] = system: UACC-62
[55] = system: UO-31
[56] = system: Malme-3M
[57] = system: NCI-H226
[58] = system: NCI-H23
[59] = system: NCI-H522

For `COc1ccc(OC)c2sc(N3C(=O)/C(=C/c4ccccc4S)N=C3c3ccccc3)nc12`, the GI50 [1] was 59.2 µM (inactive), the GI50 [2] was 55.5 µM (inactive) and the GI50 [3] was 42.8 µM (inactive). For the same compound, the GI50 [4] was 34.8 µM (inactive), the GI50 [5] was 45.9 µM (inactive) and the GI50 [6] was 95.9 µM (inactive). The GI50 [7] was 22.3 µM (inactive), the GI50 [8] was 32.8 µM (inactive) and the GI50 [9] was 49.4 µM (inactive). For the same compound, the GI50 [10] was 32.1 µM (inactive), the GI50 [11] was > 100 µM (inactive) and the GI50 [12] was 28.2 µM (inactive). The GI50 [13] was 34.1 µM, the GI50 [14] was 26.1 µM (inactive) and the GI50 [15] was 82.6 µM (inactive). For the same compound, the GI50 [16] was > 100 µM (inactive), the GI50 [17] was 38.9 µM (inactive) and the GI50 [18] was 49.7 µM (inactive). The GI50 [19] was 90.4 µM (inactive), the GI50 [20] was 26 µM (inactive) and the GI50 [21] was 41 µM (inactive). The GI50 [22] was 24.9 µM (inactive), the GI50 [23] was 36.5 µM (inactive) and the GI50 [24] was 18.7 µM (inactive). The GI50 [25] was > 100 µM (inactive), the GI50 [26] was 17.6 µM (inactive) and the GI50 [27] was 21.8 µM (inactive). The GI50 [28] was 8.83 µM (inactive), the GI50 [29] was 53.8 µM (inactive) and the GI50 [30] was 77.8 µM (inactive). The GI50 [31] was 37.5 µM (inactive), the GI50 [32] was 39.5 µM (inactive) and the GI50 [33] was > 100 µM (inactive). The GI50 [34] was 47.2 µM (inactive), the GI50 [35] was 19.7 µM (inactive) and the GI50 [36] was 22.6 µM (inactive). The GI50 [37] was 18.8 µM (inactive), the GI50 [38] was 59.7 µM (inactive) and the GI50 [39] was 52.4 µM (inactive). The GI50 [40] was 28.6 µM (inactive), the GI50 [41] was > 100 µM (inactive) and the GI50 [42] was 25.8 µM (inactive). The GI50 [43] was 18.4 µM (inactive), the GI50 [44] was > 100 µM (inactive) and the GI50 [45] was 26.9 µM (inactive). For the same compound, the GI50 [46] was 69.2 µM (inactive), the GI50 [47] was 16.5 µM (inactive) and the GI50 [48] was 14.4 µM (inactive). The GI50 [49] was 39.2 µM (inactive), the GI50 [50] was 24.2 µM (inactive) and the GI50 [51] was > 100 µM (inactive). For the same compound, the GI50 [52] was 23.8 µM (inactive), the GI50 [53] was 63 µM (inactive) and the GI50 [54] was 21.5 µM (inactive). The GI50 [55] was 28.1 µM (inactive).
For `CCOC(=O)C(NC(=O)Nc1ccccc1)(Nc1cccc(Cl)c1)C(F)(F)F` (centres undefined), the GI50 [1] was > 100 µM (inactive), the GI50 [2] was > 66.4 µM (inactive) and the GI50 [3] was > 100 µM (inactive). For the same compound, the GI50 [4] was > 100 µM (inactive), the GI50 [5] was > 100 µM (inactive) and the GI50 [7] was 45.1 µM (inactive). For the same compound, the GI50 [8] was > 100 µM (inactive), the GI50 [9] was > 100 µM (inactive) and the GI50 [10] was > 100 µM (inactive). For the same compound, the GI50 [11] was > 100 µM (inactive), the GI50 [12] was > 100 µM (inactive) and the GI50 [13] was greater than 100 µM. The GI50 [14] was 42 µM (inactive), the GI50 [15] was > 100 µM (inactive) and the GI50 [16] was 39.8 µM (inactive). The GI50 [17] was > 100 µM (inactive), the GI50 [18] was 24.3 µM (inactive) and the GI50 [19] was > 100 µM (inactive). For the same compound, the GI50 [20] was > 100 µM (inactive), the GI50 [21] was > 100 µM (inactive) and the GI50 [22] was > 100 µM (inactive). The GI50 [23] was > 100 µM (inactive), the GI50 [24] was > 100 µM (inactive) and the GI50 [25] was > 100 µM (inactive). The GI50 [26] was > 100 µM (inactive), the GI50 [27] was > 100 µM (inactive) and the GI50 [28] was 98.9 µM (inactive). The GI50 [56] was > 100 µM (inactive), the GI50 [57] was > 100 µM (inactive) and the GI50 [58] was > 100 µM (inactive). For the same compound, the GI50 [29] was > 100 µM (inactive), the GI50 [59] was 92.9 µM (inactive) and the GI50 [30] was > 100 µM (inactive). The GI50 [31] was > 100 µM (inactive), the GI50 [33] was > 100 µM (inactive) and the GI50 [34] was > 100 µM (inactive). The GI50 [35] was > 100 µM (inactive), the GI50 [36] was > 100 µM (inactive) and the GI50 [37] was 20.7 µM (inactive). For the same compound, the GI50 [38] was > 100 µM (inactive), the GI50 [40] was > 100 µM (inactive) and the GI50 [41] was > 100 µM (inactive). For the same compound, the GI50 [42] was > 100 µM (inactive), the GI50 [43] was > 100 µM (inactive) and the GI50 [44] was > 100 µM (inactive). The GI50 [45] was > 100 µM (inactive), the GI50 [46] was > 100 µM (inactive) and the GI50 [47] was 46.7 µM (inactive). The GI50 [48] was > 100 µM (inactive), the GI50 [49] was > 100 µM (inactive) and the GI50 [50] was > 100 µM (inactive). For the same compound, the GI50 [51] was > 100 µM (inactive), the GI50 [52] was > 100 µM (inactive) and the GI50 [53] was > 100 µM (inactive). For the same compound, the GI50 [54] was > 100 µM (inactive) and the GI50 [55] was > 100 µM (inactive).
With `CCOC(=O)C1=C(C)N(C)C(=S)NC1c1cccc(O)c1` (centres undefined) the GI50 [1] was 37.9 µM (inactive), the GI50 [2] was 24.7 µM (inactive) and the GI50 [3] was 36.6 µM (inactive). The GI50 [4] was 71 µM (inactive), the GI50 [5] was 32.9 µM (inactive) and the GI50 [6] was 56.6 µM (inactive). For the same compound, the GI50 [7] was 21.4 µM (inactive), the GI50 [8] was 31.8 µM (inactive) and the GI50 [9] was 57.3 µM (inactive). The GI50 [10] was 24.1 µM (inactive), the GI50 [11] was 34 µM (inactive) and the GI50 [12] was 25.6 µM (inactive). For the same compound, the GI50 [13] was 30.3 µM, the GI50 [14] was 17.8 µM (inactive) and the GI50 [15] was 77.4 µM (inactive). The GI50 [16] was 22.9 µM (inactive), the GI50 [17] was 38.9 µM (inactive) and the GI50 [18] was 46.7 µM (inactive). The GI50 [19] was 21.1 µM (inactive), the GI50 [20] was 19.7 µM (inactive) and the GI50 [21] was 29 µM (inactive). For the same compound, the GI50 [22] was 70.3 µM (inactive), the GI50 [23] was 29.4 µM (inactive) and the GI50 [24] was 29.6 µM (inactive). The GI50 [25] was 46.6 µM (inactive), the GI50 [26] was 12.5 µM (inactive) and the GI50 [27] was 14.6 µM (inactive). The GI50 [28] was 37.8 µM (inactive), the GI50 [57] was 47.9 µM (inactive) and the GI50 [58] was 26.4 µM (inactive). The GI50 [29] was 38.2 µM (inactive), the GI50 [59] was 25.2 µM (inactive) and the GI50 [30] was 18.7 µM (inactive). For the same compound, the GI50 [31] was 36.1 µM (inactive), the GI50 [32] was 36.3 µM (inactive) and the GI50 [33] was 64.1 µM (inactive). The GI50 [34] was 32.6 µM (inactive), the GI50 [35] was 38.5 µM (inactive) and the GI50 [36] was 18.7 µM (inactive). The GI50 [37] was 24.3 µM (inactive), the GI50 [38] was 62.5 µM (inactive) and the GI50 [39] was 25.9 µM (inactive). For the same compound, the GI50 [40] was 53.2 µM (inactive), the GI50 [41] was 49.1 µM (inactive) and the GI50 [42] was 34.3 µM (inactive). For the same compound, the GI50 [43] was 18.5 µM (inactive), the GI50 [44] was 36.4 µM (inactive) and the GI50 [45] was 31.8 µM (inactive). For the same compound, the GI50 [46] was 54.3 µM (inactive), the GI50 [47] was 24.7 µM (inactive) and the GI50 [48] was 16.9 µM (inactive). For the same compound, the GI50 [49] was 37.5 µM (inactive), the GI50 [50] was 18.7 µM (inactive) and the GI50 [51] was > 100 µM (inactive). The GI50 [52] was 34.8 µM (inactive), the GI50 [53] was 43.3 µM (inactive) and the GI50 [54] was 63.7 µM (inactive). For the same compound, the GI50 [55] was 81.5 µM (inactive).
